“And” between values parts separate entries of the source, which are not always exact repeats. Equal entries are not always repeated.
Columns and labels:
[1] = tested on: T helper (TH) cells (CD45^+CD4^+ T cells) in tumor-infiltrating lymphocytes; assay: Example 2: flow cytometry, percentage of TH cells in TILs; type: in vivo, Mus musculus
Protocol: (§1) Mice were sacrificed by CO2 euthanasia at the end of the study duration, and the connective tissue around tumor was resected. The tumor samples were then weighed and cut equally into three sections if the tumor weight over 400 mg. The tumor tissue was prepared for the isolation of tumor-infiltrating lymphocytes (TILs). The rest of one section was fixed in 10% formaldehyde and embedded in paraffin; the other was stored at a temperature below −70° C.
(§2) The tumor samples were dissected into smaller fragments using scalpels and then digested with a cocktail of collagenase, DNase I, and Hyaluronidase (Collagenase #C5138, DNase I #D5025, Hyaluronidase #H6254, SigmaAldrich) for at least 2 hours.
(§3) Cells were stained with the fluorescently conjugated surface antibodies and incubated for 30 minutes at 4° C., and then resuspended in staining buffer for flow cytometric analysis. Flow cytometry was done using a Navios EX Flow Cytometer (Beckman Coulter). Data were analyzed using the Kaluza Analysis Software (Beckman Coulter).

[2] = tested on: CTL cells (CD45^+CD8^+ T cells) in tumor-infiltrating lymphocytes; assay: Example 2: flow cytometry, percentage of CTL cells in TILs; type: in vivo, Mus musculus
Protocol: as §1, §2, §3

[3] = G2: OBI-3424 (0.3 mg/kg), group Mean
[4] = G2: OBI-3424 (0.3 mg/kg), individual animals, 0.3 mg/kg
[5] = G3: OBI-3424 (1 mg/kg), group Mean
[6] = G3: OBI-3424 (1 mg/kg), individual animals, 1 mg/kg

C[C@H](OP(=O)(N1CC1)N1CC1)c1ccc([N+](=O)[O-])c(Oc2cccc(C(=O)N(C)C)c2)c1 [OBI-3424, (S)-1-(3-(3-N,N-dimethylaminocarbonyl)phenoxyl-4-mtrophenyl)-1-ethyl-N,N′-bis(ethylene)phosphoramidate]
TH cells (CD45^+CD4^+ T cells) in TILs ([1]; Example 2, mean±SEM, OBI-3424 1 mg/kg, alone (G3) or with anti-hPD-1 (G6)): 25.05±2.08%
CD25^+ TH cells (CD45^+CD4^+ CD25^+) Total % [1, 3]: 2.46%
CD25^+ TH cells (CD45^+CD4^+CD25^+) Cell count (×10^5) [1, 3]: 4.93 ×10^5
CD25^+ TH cells (CD45^+CD4^+CD25^+) TH Gated % [1, 3]: 18.22%
CD69^+ TH cells (CD45^+CD4^+CD69^+) Cell count (×10^5) [1, 3]: 13.89 ×10^5
CD69^+ TH cells (CD45^+CD4^+CD69^+) TH Gated % [1, 3]: 60.13%
CD69^+ TH cells (CD45^+CD4^+CD69^+) Total % [1, 3]: 8.46%
Foxp3^+ Treg cells (CD45^+CD4^+CD25^+Foxp3^+) Cell count (×10^5) [1, 3]: 0.24 ×10^5
Foxp3^+ Treg cells (CD45^+CD4^+CD25^+Foxp3^+) TH Gated % [1, 3]: 5.27%
Foxp3^+ Treg cells (CD45^+CD4^+CD25^+Foxp3^+) Total % [1, 3]: 0.12%
PD-1^+ TH cells (CD45^+CD4^+ PD-1^+) Cell count (×10^5) [1, 3]: 20.36 ×10^5
PD-1^+ TH cells (CD45^+CD4^+ PD-1^+) TH Gated % [1, 3]: 93.96%
PD-1^+ TH cells (CD45^+CD4^+ PD-1^+) Total % [1, 3]: 12.11%
TH cells (CD45^+CD4^+) CD45^+ Gated % [1, 3]: 33.51%
TH cells (CD45^+CD4^+) Cell count (×10^5) [1, 3]: 21.50 ×10^5
TH cells (CD45^+CD4^+) Total % [1, 3]: 12.88%
CD25^+ TH cells (CD45^+CD4^+ CD25^+) Total % [1, 4]: 1.65% and 2.12% and 4.23% and 2.84%
CD25^+ TH cells (CD45^+CD4^+CD25^+) Cell count (×10^5) [1, 4]: 4.34 ×10^5 and 3.39 ×10^5 and 8.91 ×10^5 and 0.45 ×10^5 and 10.43 ×10^5 and 2.06 ×10^5
CD25^+ TH cells (CD45^+CD4^+CD25^+) TH Gated % [1, 4]: 18.38% and 17.49% and 18.21% and 10.15% and 30.45% and 14.61%
CD69^+ TH cells (CD45^+CD4^+CD69^+) Cell count (×10^5) [1, 4]: 14.86 ×10^5 and 13.89 ×10^5 and 28.08 ×10^5 and 3.35 ×10^5 and 16.93 ×10^5 and 6.24 ×10^5
CD69^+ TH cells (CD45^+CD4^+CD69^+) TH Gated % [1, 4]: 63.07% and 71.55% and 57.32% and 49.45% and 44.32%
CD69^+ TH cells (CD45^+CD4^+CD69^+) Total % [1, 4]: 7.64% and 6.79% and 5.20% and 15.65% and 6.87% and 8.60%
Foxp3^+ Treg cells (CD45^+CD4^+CD25^+Foxp3^+) Cell count (×10^5) [1, 4]: 0.21 ×10^5 and 0.27 ×10^5 and 0.43 ×10^5 and 0.03 ×10^5 and 0.39 ×10^5 and 0.08 ×10^5
Foxp3^+ Treg cells (CD45^+CD4^+CD25^+Foxp3^+) TH Gated % [1, 4]: 5.03% and 7.95% and 5.08% and 6.05% and 3.69% and 3.81%
Foxp3^+ Treg cells (CD45^+CD4^+CD25^+Foxp3^+) Total % [1, 4]: 0.11% (2×) and 0.13% (2×) and 0.08% and 0.16%
PD-1^+ TH cells (CD45^+CD4^+ PD-1^+) Cell count (×10^5) [1, 4]: 21.12 ×10^5 and 16.11 ×10^5 and 38.56 ×10^5 and 4.30 ×10^5 and 32.19 ×10^5 and 9.90 ×10^5
PD-1^+ TH cells (CD45^+CD4^+ PD-1^+) TH Gated % [1, 4]: 98.48% and 81.16% and 94.89% and 90.86% and 99.60% and 98.76%
PD-1^+ TH cells (CD45^+CD4^+ PD-1^+) Total % [1, 4]: 10.86% and 7.88% and 7.14% and 20.09% and 13.06% and 13.65%
TH cells (CD45^+CD4^+) CD45^+ Gated % [1, 4]: 59.01% and 26.17% and 17.42% and 32.52% and 29.44% and 36.50%
TH cells (CD45^+CD4^+) Cell count (×10^5) [1, 4]: 21.45 ×10^5 and 19.84 ×10^5 and 40.61 ×10^5 and 4.73 ×10^5 and 32.34 ×10^5 and 10.02 ×10^5
TH cells (CD45^+CD4^+) Total % [1, 4]: 11.03% and 9.70% and 7.52% and 22.11% and 13.12% and 13.82%
CD25^+ TH cells (CD45^+CD4^+ CD25^+) Total % [1, 5]: 3.32%
CD25^+ TH cells (CD45^+CD4^+CD25^+) Cell count (×10^5) [1, 5]: 2.83 ×10^5
CD25^+ TH cells (CD45^+CD4^+CD25^+) TH Gated % [1, 5]: 13.39%
CD69^+ TH cells (CD45^+CD4^+CD69^+) Cell count (×10^5) [1, 5]: 12.24 ×10^5
CD69^+ TH cells (CD45^+CD4^+CD69^+) TH Gated % [1, 5]: 61.30%
CD69^+ TH cells (CD45^+CD4^+CD69^+) Total % [1, 5]: 15.55%
Foxp3^+ Treg cells (CD45^+CD4^+CD25^+Foxp3^+) Cell count (×10^5) [1, 5]: 0.07 ×10^5
Foxp3^+ Treg cells (CD45^+CD4^+CD25^+Foxp3^+) TH Gated % [1, 5]: 3.04%
Foxp3^+ Treg cells (CD45^+CD4^+CD25^+Foxp3^+) Total % [1, 5]: 0.09%
PD-1^+ TH cells (CD45^+CD4^+ PD-1^+) Cell count (×10^5) [1, 5]: 19.54 ×10^5
PD-1^+ TH cells (CD45^+CD4^+ PD-1^+) TH Gated % [1, 5]: 97.01%
PD-1^+ TH cells (CD45^+CD4^+ PD-1^+) Total % [1, 5]: 24.35%
TH cells (CD45^+CD4^+) CD45^+ Gated % [1, 5]: 41.85%
TH cells (CD45^+CD4^+) Cell count (×10^5) [1, 5]: 20.13 ×10^5
TH cells (CD45^+CD4^+) Total % [1, 5]: 25.05%
CD25^+ TH cells (CD45^+CD4^+ CD25^+) Total % [1, 6]: 1.46% and 2.88% and 2.69% and 5.06% and 4.55% and 3.26%
CD25^+ TH cells (CD45^+CD4^+CD25^+) Cell count (×10^5) [1, 6]: 0.42 ×10^5 and 3.63 ×10^5 and 1.90 ×10^5 and 5.00 ×10^5 and 3.39 ×10^5 and 2.64 ×10^5
CD25^+ TH cells (CD45^+CD4^+CD25^+) TH Gated % [1, 6]: 5.51% and 11.47% and 14.05% and 20.81% and 18.53% and 9.97%
CD69^+ TH cells (CD45^+CD4^+CD69^+) Cell count (×10^5) [1, 6]: 4.74 ×10^5 and 19.21 ×10^5 and 9.19 ×10^5 and 10.91 ×10^5 and 12.59 ×10^5 and 16.82 ×10^5
CD69^+ TH cells (CD45^+CD4^+CD69^+) TH Gated % [1, 6]: 61.50% and 60.62% and 67.91% and 45.46% and 68.87% and 63.43%
CD69^+ TH cells (CD45^+CD4^+CD69^+) Total % [1, 6]: 16.35% and 15.22% and 13.01% and 11.04% and 16.92% and 20.76%
Foxp3^+ Treg cells (CD45^+CD4^+CD25^+Foxp3^+) Cell count (×10^5) [1, 6]: 0.02 ×10^5 and 0.08 ×10^5 and 0.07 ×10^5 and 0.12 ×10^5 and 0.04 ×10^5 and 0.11 ×10^5
Foxp3^+ Treg cells (CD45^+CD4^+CD25^+Foxp3^+) TH Gated % [1, 6]: 4.64% and 2.22% and 3.57% and 2.45% and 1.41% and 3.92%
Foxp3^+ Treg cells (CD45^+CD4^+CD25^+Foxp3^+) Total % [1, 6]: 0.07% and 0.06% (2×) and 0.10% and 0.12% and 0.13%
PD-1^+ TH cells (CD45^+CD4^+ PD-1^+) Cell count (×10^5) [1, 6]: 7.02 ×10^5 and 29.44 ×10^5 and 11.76 ×10^5 and 23.76 ×10^5 and 18.24 ×10^5 and 27.01 ×10^5
PD-1^+ TH cells (CD45^+CD4^+ PD-1^+) TH Gated % [1, 6]: 96.86% and 94.38% and 95.57% and 98.57% and 97.07% and 99.62%
PD-1^+ TH cells (CD45^+CD4^+ PD-1^+) Total % [1, 6]: 24.22% and 23.33% and 16.66% and 24.05% and 24.52% and 33.34%
TH cells (CD45^+CD4^+) CD45^+ Gated % [1, 6]: 37.76% and 41.33% and 35.50% and 40.55% and 38.34% and 57.62%
TH cells (CD45^+CD4^+) Cell count (×10^5) [1, 6]: 7.25 ×10^5 and 31.20 ×10^5 and 12.31 ×10^5 and 24.11 ×10^5 and 18.79 ×10^5 and 27.11 ×10^5
TH cells (CD45^+CD4^+) Total % [1, 6]: 25.00% and 24.72% and 17.44% and 24.40% and 25.26% and 33.47%
CTL cells (CD45^+CD8^+ T cells) in TILs ([2]; Example 2, mean±SEM, OBI-3424 1 mg/kg, alone (G3) or with anti-hPD-1 (G6), vehicle 15.53±5.66%): 33.50±3.38%
CD25^+ CTL cells (CD45^+ CD8^+CD25^+) Cell count (×10^5) ([2]; G2: 0.3 mg/kg, group mean): 2.93 ×10^5
CD25^+ CTL cells (CD45^+CD8^+ CD25^+) CTL Gated % ([2]; G2: 0.3 mg/kg, group mean): 5.60%
CD25^+ CTL cells (CD45^+CD8^+ CD25^+) Total % ([2]; G2: 0.3 mg/kg, group mean): 1.33%
CD69^+ CTL cells (CD45^+ CD8^+CD69^+) CTL Gated % ([2]; G2: 0.3 mg/kg, group mean): 69.71%
CD69^+ CTL cells (CD45^+ CD8^+CD69^+) Cell count (×10^5) ([2]; G2: 0.3 mg/kg, group mean): 40.97 ×10^5

From patent US20240216401A1, “COMBINATION THERAPY BY USING AKR1C3-ACTIVATED COMPOUND WITH IMMUNE CHECKPOINT INHIBITOR” (OBI Pharma, Inc., priority 2021, published 2024)
